Measured values from ChEMBL document CHEMBL1641439, “The effect of 5-substitution on the electrochemical behavior and antitubercular activity of PA-824” (2011).
In brackets after ≈: the same amount, converted by molar mass.

Legend:
[1] = system: Mycobacterium tuberculosis; experiment: Antituberculosis activity against Mycobacterium tuberculosis H37Rv after 2 weeks; assay type: functional; settings: 336 h
[2] = system: Mycobacterium tuberculosis; experiment: Antituberculosis activity against Mycobacterium tuberculosis H37Rv assessed as minimum anaerobicidal cancentration after 3 weeks; assay type: functional

Row | Compound | MIC [1] [µM] | MAC [2] [µM]
1 | O=[N+]([O-])c1cn2c(n1)OC[C@@H](OCc1ccc(OC(F)(F)F)cc1)C2 [PRETOMANID] | 0.8 (≈ 0.287 µg/mL) | 8
2 | O=[N+]([O-])c1nc2n(c1Cl)C[C@H](OCc1ccc(OC(F)(F)F)cc1)CO2 | 25 (≈ 9.84 µg/mL) | –
3 | O=[N+]([O-])c1nc2n(c1Br)C[C@H](OCc1ccc(OC(F)(F)F)cc1)CO2 | 25 (≈ 11 µg/mL) | 32.5
4 | N#Cc1c([N+](=O)[O-])nc2n1C[C@H](OCc1ccc(OC(F)(F)F)cc1)CO2 | > 100 | –
5 | Nc1c([N+](=O)[O-])nc2n1C[C@H](OCc1ccc(OC(F)(F)F)cc1)CO2 | > 100 | >100
